{
  "source": "patent US5114967A",
  "about": "“Antibiotic alisamycin and its use” (Hoechst Aktiengesellschaft, priority 1990, dated 1992)",
  "key": {"[1]": {"system": "Candida albicans", "test": "agar-well method in Antibiotic Assay medium", "details": "read-out: Zone diam"}, "[2]": {"test": "antitumor activity"}, "[3]": {"system": "Piriicularia oryzae", "type": "cell-based"}, "[4]": {"system": "Staphylococcus aureus 209 p", "test": "agar-well method in Antibiotic Assay medium", "details": "read-out: Zone diam"}, "[5]": {"system": "Streptococcus faecalis 23241", "test": "agar-well method in Antibiotic Assay medium", "details": "Enterococcus faecalis, 23241, read-out: Zone diam"}, "[6]": {"system": "Staphylococcus aureus 20424"}, "[7]": {"system": "Staphylococcus aureus 20424", "test": "agar-well method in Antibiotic Assay medium", "details": "Staphylococcus aureus, 20424, read-out: Zone diam"}, "[8]": {"system": "gram-negative bacteria", "test": "antibacterial activity (general statement)", "type": "cell-based"}, "[9]": {"system": "Botrytis cinerea 47", "test": "agar-well method in Antibiotic Assay medium", "details": "Botrytis cinerea, 47, read-out: Zone diam"}, "[10]": {"system": "gram-positive bacteria", "test": "antibacterial activity (general statement)", "type": "cell-based"}, "[11]": {"system": "Botrytis cinerea 47"}, "[12]": {"system": "Streptococcus faecalis UD8b", "details": "Enterococcus faecalis"}, "[13]": {"system": "Candida albicans"}, "[14]": {"system": "Piriicularia oryzae", "test": "agar-well method in Antibiotic Assay medium", "type": "cell-based"}, "[15]": {"test": "antiparasitic activity"}, "[16]": {"system": "Escherichia coli 9632"}, "[17]": {"system": "Streptococcus faecalis UD8b", "test": "agar-well method in Antibiotic Assay medium", "details": "Enterococcus faecalis, read-out: Zone diam"}, "[18]": {"system": "Streptococcus faecalis 23241", "details": "Enterococcus faecalis"}, "[19]": {"system": "Streptococcus faecalis Eder", "test": "agar-well method in Antibiotic Assay medium", "details": "Enterococcus faecalis, read-out: Zone diam"}, "[20]": {"system": "Streptococcus faecalis Eder", "details": "Enterococcus faecalis"}, "[21]": {"system": "Staphylococcus aureus E88"}, "[22]": {"system": "Staphylococcus aureus 209 p"}, "[23]": {"system": "Staphylococcus aureus E88", "test": "agar-well method in Antibiotic Assay medium", "details": "E88, read-out: Zone diam"}, "[24]": {"test": "solubility", "type": "physicochemical"}},
  "data": [
    {"smiles": "O=C(/C=C/C=C/C1CCCCC1)NC1=CC(O)(/C=C/C=C/C=C/C(=O)NC2=C(O)CCC2=O)C2OC2C1=O", "note": "(centres unmarked) [Alisamycin]", "values": [
      {"measurement": "zone of inhibition at 500 µg/mL", "setting": "[1]", "value": 10, "unit": "mm"},
      {"measurement": "antitumor activity", "setting": "[2]", "value": "found to have antitumor"},
      {"measurement": "MIC", "setting": "[3]", "value": "> 50", "unit": "µg/mL"},
      {"measurement": "zone of inhibition at 32 µg/mL", "setting": "[4]", "value": 18.5, "unit": "mm"},
      {"measurement": "zone of inhibition at 500 µg/mL", "setting": "[4]", "value": 26, "unit": "mm"},
      {"measurement": "zone of inhibition at 32 µg/mL", "setting": "[5]", "value": 13, "unit": "mm"},
      {"measurement": "zone of inhibition at 500 µg/mL", "setting": "[5]", "value": 22, "unit": "mm"},
      {"measurement": "MIC", "setting": "[6]", "value": 3.2, "unit": "µg/mL"},
      {"measurement": "zone of inhibition at 32 µg/mL", "setting": "[7]", "value": 19, "unit": "mm"},
      {"measurement": "zone of inhibition at 500 µg/mL", "setting": "[7]", "value": 25, "unit": "mm"},
      {"measurement": "activity against gram-negative bacteria", "setting": "[8]", "value": "active"},
      {"measurement": "zone of inhibition at 500 µg/mL", "setting": "[9]", "value": 20, "unit": "mm"},
      {"measurement": "activity against gram-positive bacteria", "setting": "[10]", "value": "active"},
      {"measurement": "MIC", "setting": "[11]", "value": "> 50", "unit": "µg/mL"},
      {"measurement": "MIC", "setting": "[12]", "value": "> 50", "unit": "µg/mL"},
      {"measurement": "MIC", "setting": "[13]", "value": 50, "unit": "µg/mL"},
      {"measurement": "zone of inhibition at 32 µg/mL", "setting": "[14]; 32 μg/ml", "value": 11, "unit": "mm"},
      {"measurement": "zone of inhibition at 500 µg/mL", "setting": "[14]; 500 μg/ml", "value": 15, "unit": "mm"},
      {"measurement": "antiparasitic activity", "setting": "[15]", "value": "antiparasitic activities"},
      {"measurement": "MIC", "setting": "[16]", "value": "> 50", "unit": "µg/mL"},
      {"measurement": "zone of inhibition at 32 µg/mL", "setting": "[17]", "value": 13, "unit": "mm"},
      {"measurement": "zone of inhibition at 500 µg/mL", "setting": "[17]", "value": 16, "unit": "mm"},
      {"measurement": "MIC", "setting": "[18]", "value": 6.4, "unit": "µg/mL"},
      {"measurement": "zone of inhibition at 32 µg/mL", "setting": "[19]", "value": 16, "unit": "mm"},
      {"measurement": "zone of inhibition at 500 µg/mL", "setting": "[19]", "value": 23, "unit": "mm"},
      {"measurement": "MIC", "setting": "[20]", "value": 6.4, "unit": "µg/mL"},
      {"measurement": "MIC", "setting": "[21]", "value": 6.4, "unit": "µg/mL"},
      {"measurement": "MIC", "setting": "[22]", "value": 1.6, "unit": "µg/mL"},
      {"measurement": "zone of inhibition at 32 µg/mL", "setting": "[23]", "value": 14, "unit": "mm"},
      {"measurement": "zone of inhibition at 500 µg/mL", "setting": "[23]", "value": 27, "unit": "mm"},
      {"measurement": "solubility", "setting": "[24]; acetonitrile", "value": "fairly soluble"},
      {"measurement": "solubility", "setting": "[24]; chloroform", "value": "fairly soluble"},
      {"measurement": "solubility", "setting": "[24]; dimethylsulfoxide", "value": "very soluble"},
      {"measurement": "solubility", "setting": "[24]; ethanol", "value": "poorly soluble"},
      {"measurement": "solubility", "setting": "[24]; ethyl acetate", "value": "fairly soluble"},
      {"measurement": "solubility", "setting": "[24]; hexane", "value": "poorly soluble"},
      {"measurement": "solubility", "setting": "[24]; methanol", "value": "poorly soluble"},
      {"measurement": "solubility", "setting": "[24]; methylene chloride", "value": "fairly soluble"},
      {"measurement": "solubility", "setting": "[24]; petroleum ether", "value": "poorly soluble"},
      {"measurement": "solubility", "setting": "[24]; propylene glycol", "value": "very soluble"},
      {"measurement": "solubility", "setting": "[24]; water", "value": "poorly soluble"}
    ]}
  ]
}
